Results: ChEMBL document CHEMBL4257449, “New N-(2-phenyl-4-oxo-1,3-thiazolidin-3-yl)-1,2-benzothiazole-3-carboxamides and acetamides as antimicrobial agents” (2017)
Converted amounts (≈) assume the structure as drawn.

Legend:
Penicillium ochrochloron [1] = experiment: Antifungal activity against Penicillium ochrochloron ATCC 9112 after 72 hrs by serial dilution method; assay type: functional; conditions: ATCC 9112, 72 h
Bacillus cereus [2] = experiment: Antibacterial activity against Bacillus cereus after 24 hrs by microdilution method; assay type: functional
Bacillus cereus [3] = experiment: Bactericidal activity against Bacillus cereus incubated for 24 hrs followed by serial sub-cultivation and measured after 24 hrs by microdilution method; assay type: functional
Micrococcus flavus [4] = experiment: Antibacterial activity against Micrococcus flavus ATCC 10240 after 24 hrs by microdilution method; assay type: functional; conditions: ATCC 10240, 24 h
Micrococcus flavus [5] = experiment: Bactericidal activity against Micrococcus flavus ATCC 10240 incubated for 24 hrs followed by serial sub-cultivation and measured after 24 hrs by microdilution method; assay type: functional
Staphylococcus aureus [6] = experiment: Antibacterial activity against Staphylococcus aureus ATCC 6538 after 24 hrs by microdilution method; assay type: functional; conditions: ATCC 6538, 24 h
Staphylococcus aureus [7] = experiment: Bactericidal activity against Staphylococcus aureus ATCC 6538 incubated for 24 hrs followed by serial sub-cultivation and measured after 24 hrs by microdilution method; assay type: functional
Listeria monocytogenes [8] = experiment: Antibacterial activity against Listeria monocytogenes NCTC 7973 after 24 hrs by microdilution method; assay type: functional; conditions: NCTC 7973, 24 h
Listeria monocytogenes [9] = experiment: Bactericidal activity against Listeria monocytogenes NCTC 7973 incubated for 24 hrs followed by serial sub-cultivation and measured after 24 hrs by microdilution method; assay type: functional
Escherichia coli [10] = experiment: Antibacterial activity against Escherichia coli ATCC 35210 after 24 hrs by microdilution method; assay type: functional; conditions: ATCC 35210, 24 h
Escherichia coli [11] = experiment: Bactericidal activity against Escherichia coli ATCC 35210 incubated for 24 hrs followed by serial sub-cultivation and measured after 24 hrs by microdilution method; assay type: functional
Enterobacter cloacae [12] = experiment: Antibacterial activity against Enterobacter cloacae after 24 hrs by microdilution method; assay type: functional
Enterobacter cloacae [13] = experiment: Bactericidal activity against Enterobacter cloacae incubated for 24 hrs followed by serial sub-cultivation and measured after 24 hrs by microdilution method; assay type: functional
Pseudomonas aeruginosa [14] = experiment: Antibacterial activity against Pseudomonas aeruginosa ATCC 27853 after 24 hrs by microdilution method; assay type: functional; conditions: ATCC 27853, 24 h
Pseudomonas aeruginosa [15] = experiment: Bactericidal activity against Pseudomonas aeruginosa ATCC 27853 incubated for 24 hrs followed by serial sub-cultivation and measured after 24 hrs by microdilution method; assay type: functional
Salmonella typhimurium [16] = experiment: Antibacterial activity against Salmonella typhimurium ATCC 13311 after 24 hrs by microdilution method; assay type: functional, Salmonella enterica subsp. enterica serovar Typhimurium; conditions: Salmonella enterica, ATCC 13311, 24 h
Salmonella typhimurium [17] = experiment: Bactericidal activity against Salmonella typhimurium ATCC 13311 incubated for 24 hrs followed by serial sub-cultivation and measured after 24 hrs by microdilution method; assay type: functional, Salmonella enterica subsp. enterica serovar Typhimurium
Aspergillus versicolor [18] = experiment: Antifungal activity against Aspergillus versicolor ATCC 11730 after 72 hrs by serial dilution method; assay type: functional; conditions: ATCC 11730, 72 h
Aspergillus fumigatus [19] = experiment: Antifungal activity against Aspergillus fumigatus after 72 hrs by serial dilution method; assay type: functional
Aspergillus fumigatus [20] = experiment: Fungicidal activity against Aspergillus fumigatus incubated for 72 hrs followed by serial sub-cultivation for 72 hrs and measured after 72 hrs by serial dilution method; assay type: functional
Aspergillus versicolor [21] = experiment: Fungicidal activity against Aspergillus versicolor ATCC 11730 incubated for 72 hrs followed by serial sub-cultivation for 72 hrs and measured after 72 hrs by serial dilution method; assay type: functional
Aspergillus ochraceus [22] = experiment: Antifungal activity against Aspergillus ochraceus ATCC 12066 after 72 hrs by serial dilution method; assay type: functional; conditions: ATCC 12066, 72 h
Aspergillus ochraceus [23] = experiment: Fungicidal activity against Aspergillus ochraceus ATCC 12066 incubated for 72 hrs followed by serial sub-cultivation for 72 hrs and measured after 72 hrs by serial dilution method; assay type: functional
Aspergillus niger [24] = experiment: Antifungal activity against Aspergillus niger ATCC 6275 after 72 hrs by serial dilution method; assay type: functional; conditions: ATCC 6275, 72 h
Aspergillus niger [25] = experiment: Fungicidal activity against Aspergillus niger ATCC 6275 incubated for 72 hrs followed by serial sub-cultivation for 72 hrs and measured after 72 hrs by serial dilution method; assay type: functional
Trichoderma viride [26] = experiment: Antifungal activity against Trichoderma viride IAM 5061 after 72 hrs by serial dilution method; assay type: functional; conditions: IAM 5061, 72 h
Trichoderma viride [27] = experiment: Fungicidal activity against Trichoderma viride IAM 5061 incubated for 72 hrs followed by serial sub-cultivation for 72 hrs and measured after 72 hrs by serial dilution method; assay type: functional
Talaromyces funiculosus [28] = experiment: Antifungal activity against Penicillium funiculosum ATCC 36839 after 72 hrs by serial dilution method; assay type: functional; conditions: ATCC 36839, 72 h
Talaromyces funiculosus [29] = experiment: Fungicidal activity against Penicillium funiculosum ATCC 36839 incubated for 72 hrs followed by serial sub-cultivation for 72 hrs and measured after 72 hrs by serial dilution method; assay type: functional
Penicillium ochrochloron [30] = experiment: Fungicidal activity against Penicillium ochrochloron ATCC 9112 incubated for 72 hrs followed by serial sub-cultivation for 72 hrs and measured after 72 hrs by serial dilution method; assay type: functional
Candida albicans [31] = experiment: Antifungal activity against Candida albicans after 72 hrs by serial dilution method; assay type: functional
Candida albicans [32] = experiment: Fungicidal activity against Candida albicans incubated for 72 hrs followed by serial sub-cultivation for 72 hrs and measured after 72 hrs by serial dilution method; assay type: functional

SMILES	MIC (Penicillium ochrochloron [1]) [µM]	MIC (Bacillus cereus [2]) [µM]	MBC99.5 (Bacillus cereus [3]) [×10⁻² umol/ml]	MIC (Micrococcus flavus [4]) [µM]	MBC99.5 (Micrococcus flavus [5]) [×10⁻² umol/ml]	MIC (Staphylococcus aureus [6]) [µM]	MBC99.5 (Staphylococcus aureus [7]) [×10⁻² umol/ml]	MIC (Listeria monocytogenes [8]) [µM]	MBC99.5 (Listeria monocytogenes [9]) [×10⁻² umol/ml]	MIC (Escherichia coli [10]) [µM]	MBC99.5 (Escherichia coli [11]) [×10⁻² umol/ml]	MIC (Enterobacter cloacae [12]) [µM]	MBC99.5 (Enterobacter cloacae [13]) [×10⁻² umol/ml]	MIC (Pseudomonas aeruginosa [14]) [µM]	MBC99.5 (Pseudomonas aeruginosa [15]) [×10⁻² umol/ml]	MIC (Salmonella typhimurium [16]) [µM]	MBC99.5 (Salmonella typhimurium [17]) [×10⁻² umol/ml]	MIC (Aspergillus versicolor [18]) [µM]	MIC (Aspergillus fumigatus [19]) [µM]	MFC99.5 (Aspergillus fumigatus [20]) [×10⁻² umol/ml]	also measured
O=C(NN1C(=O)CSC1c1cccc(Cl)c1)c1nsc2ccccc12 (centres undefined)	208 (≈ 81.1 µg/mL)	102 (≈ 39.8 µg/mL)	38.4	205 (≈ 79.9 µg/mL)	38.4	102 (≈ 39.8 µg/mL)	20.5	20.5 (≈ 7.99 µg/mL)	3.84	102 (≈ 39.8 µg/mL)	20.5	205 (≈ 79.9 µg/mL)	38.4	205 (≈ 79.9 µg/mL)	38.4	205 (≈ 79.9 µg/mL)	38.4	51 (≈ 19.9 µg/mL)	384 (≈ 150 µg/mL)	76.8	MFC99.5 (Aspergillus versicolor [21]): 10.2 ×10⁻² umol/ml; MIC (Aspergillus ochraceus [22]): 102 µM (≈ 39.8 µg/mL); MFC99.5 (Aspergillus ochraceus [23]): 20.5 ×10⁻² umol/ml; MIC (Aspergillus niger [24]): 77 µM (≈ 30 µg/mL); MFC99.5 (Aspergillus niger [25]): 10.2 ×10⁻² umol/ml; MIC (Trichoderma viride [26]): 51 µM (≈ 19.9 µg/mL); MFC99.5 (Trichoderma viride [27]): 10.2 ×10⁻² umol/ml; MIC (Talaromyces funiculosus [28]): 102 µM (≈ 39.8 µg/mL); MFC99.5 (Talaromyces funiculosus [29]): 20.5 ×10⁻² umol/ml; MFC99.5 (Penicillium ochrochloron [30]): 38.4 ×10⁻² umol/ml; MIC (Candida albicans [31]): 102 µM (≈ 39.8 µg/mL); MFC99.5 (Candida albicans [32]): 20.5 ×10⁻² umol/ml
O=C(N/N=C/c1c(Cl)cccc1Cl)c1nsc2ccccc12	232 (≈ 81.3 µg/mL)	116 (≈ 40.6 µg/mL)	23.2	116 (≈ 40.6 µg/mL)	23.2	58 (≈ 20.3 µg/mL)	17.6	232 (≈ 81.3 µg/mL)	46.4	116 (≈ 40.6 µg/mL)	23.2	116 (≈ 40.6 µg/mL)	23.2	232 (≈ 81.3 µg/mL)	46.4	116 (≈ 40.6 µg/mL)	23.2	464 (≈ 163 µg/mL)	232 (≈ 81.3 µg/mL)	46.4	MFC99.5 (Aspergillus versicolor [21]): 58 ×10⁻² umol/ml; MIC (Aspergillus ochraceus [22]): 232 µM (≈ 81.3 µg/mL); MFC99.5 (Aspergillus ochraceus [23]): 46.4 ×10⁻² umol/ml; MIC (Aspergillus niger [24]): 464 µM (≈ 163 µg/mL); MFC99.5 (Aspergillus niger [25]): 58 ×10⁻² umol/ml; MIC (Trichoderma viride [26]): 116 µM (≈ 40.6 µg/mL); MFC99.5 (Trichoderma viride [27]): 46.4 ×10⁻² umol/ml; MIC (Talaromyces funiculosus [28]): 464 µM (≈ 163 µg/mL); MFC99.5 (Talaromyces funiculosus [29]): 58 ×10⁻² umol/ml; MFC99.5 (Penicillium ochrochloron [30]): 46.4 ×10⁻² umol/ml; MIC (Candida albicans [31]): 232 µM (≈ 81.3 µg/mL); MFC99.5 (Candida albicans [32]): 46.4 ×10⁻² umol/ml
